Values quoted from earlier work, collected in patent US20150275302A1, “DETERMINATION OF SINGLE NUCLEOTIDE POLYMORPHISMS USEFUL TO PREDICT RESPONSE FOR RASAGILINE” (TEVA PHARMACEUTICAL INDUSTRIES, LTD., priority 2014, published 2015).

Details: in vivo

absolute bioavailability: about 36%
SMILES: C#CCN[C@@H]1CCc2ccccc21 [rasagiline, R(+)-N-propargyl-l-aminoindan]
